Structures can show the parent of a compound that is named as a salt. Where two headings read alike, the source gives them in different places.
How the values were obtained:
[1] = in vivo; conditions: mouse, male mice, intravenous, as base, read-out: LD50 in mg/kg (base) intravenously
Method: The compounds according to the invention were the subject of a toxicological study to determine the lethal doses (LD50) in male mice, the compounds being administered intravenously. Metoclopramide was employed as a standard. The compounds of […] were tested.
Table (I) sets out the values with respect to said (LD50) tests.

[2] = in vivo, sc
[3] = tested on: stereotyped movements induced by apomorphine; experiment: Antagonism of stereotyped movements induced by apomorphine in rats (central antidopaminergic effect); format: in vivo
Method: Another pharmacological study was conducted to determine the central antidopaminergic effects of the compounds of the invention, by evaluating the power of their antagonistic effect in regard to the stereotyped movements induced by apomorphine in two different doses (1.25 mg/kg/IV and 0.5 mg/kg/SC) in rats. The tests were conducted according to conventional procedures.

[4] = Solubility of crystals; format: physicochemical
[5] = in vivo; conditions: sc
[6] = Rattus norvegicus, ip, I.P., read-out: inhibitor effect on stereotypies in regard to apomorphine, Intraperitoneal (I.P)
[7] = Rattus norvegicus, ip, I.P., at 64 mg/kg, read-out: inhibitor effect on stereotypies in regard to apomorphine, Intraperitoneal (I.P)
[8] = I.P., at 64 mg/kg, result in words

SMILES	LD50 [1]	Cataleptic Activity (Subcutaneous) ([2]; 200 mg/kg)	Stereotypies in regard to apomorphine, Subcutaneous (S.C.) ([3]; S.C., at 200 mg/kg)	inhibition in vivo at 64 mg/kg [3, 7]	further results
C=CCOc1cc(N)c(Cl)cc1C(=O)NCC1=NCCN1CC [Example 5, N-[(1-ETHYL 2-IMIDAZOLIN-2-YL)METHYL] 2-ALLYLOXY 4-AMINO 5-CHLOROBENZAMIDE]	25.5 to 26.1 mg/kg	inactive	inactive		inhibition in vivo at 32 mg/kg [3, 6]: 8%
CCN1CCN=C1CNC(=O)c1cc(Cl)c(N)cc1OC [Example 1, N-[(1-ETHYL 2-IMIDAZOLIN-2-YL)METHYL] 2-METHOXY 4-AMINO 5-CHLOROBENZAMIDE]	27.1 to 27.2 mg/kg	inactive	inactive		solubility in chloroform ([4]; chloroform): highly soluble; solubility in dilute acetic acid ([4]; dilute acetic acid): soluble; Stereotypies in regard to apomorphine, Intraperitoneal (I.P) ([3]; I.P., at 50 mg/kg): inactive
COc1cc(N)c(Cl)cc1C(=O)NCC1=NCCN1C [Example 8, N-[(1-METHYL 2-IMIDAZOLIN-2-YL)METHYL]2-METHOXY 4-AMINO 5-CHLOROBENZAMIDE HYDROCHLORIDE]		inactive	inactive	8%	
CCN1CCN=C1CNC(=O)c1cc(Cl)c(N)cc1O [Example 12, N-[(1-ETHYL 2-IMIDAZOLIN-2-YL)METHYL]2-HYDROXY 4-AMINO 5-CHLOROBENZAMIDE HYDROCHLORIDE]	59.3 mg/kg	inactive	inactive		inhibition in vivo at 54 mg/kg ([3]; Rattus norvegicus, ip, I.P., at 54 mg/kg, read-out: inhibitor effect on stereotypies in regard to apomorphine, Intraperitoneal (I.P)): 2%
COc1cc(N)c(Cl)cc1C(=O)NCC1=NCCN1 [Example 10, N-[(2-IMIDAZOLIN-2-YL)METHYL] 2-METHOXY 4-AMINO 5-CHLOROBENZAMIDE NITRATE]	38.4 to 41.9 mg/kg	inactive		4%	Stereotypies in regard to apomorphine, Subcutaneous (S.C.) ([3]; S.C., at 100 mg/kg): inactive
COc1cc(N)c(Cl)cc1C(=O)NCC1=NCCN1CC1=CCCCC1 [Example 13, N-[1-CYCLOHEXEN-1-YL-METHYL)2-(IMIDAZOLIN-2-YL)METHYL]2-METHOXY 4-AMINO 5-CHLOROBENZAMIDE]	61.6 mg/kg	inactive	inactive	18%	
CCN1CCN=C1C(C)NC(=O)c1cc(Cl)c(N)cc1OC (stereo not drawn) [Example 14, N-[1-(ethyl 2-imidazolin-2-yl)ethyl]2-methoxy 4-amino 5-chlorobenzamide]	14.6 mg/kg				Cataleptic Activity (Subcutaneous) ([2]; 80 mg/kg): inactive; Stereotypies in regard to apomorphine, Intraperitoneal (I.P) ([3]; I.P., at 40 mg/kg): inactive; Stereotypies in regard to apomorphine, Subcutaneous (S.C.) ([3]; S.C., at 80 mg/kg): inactive
CCN1CC(C)(C)N=C1CNC(=O)c1cc(Cl)c(N)cc1OC [Example 11, N-[(1-ETHYL 4-DIMETHYL 2-IMIDAZOLIN-2-YL)METHYL]2-METHOXY 4-AMINO 5-CHLOROBENZAMIDE]	30.4 mg/kg	inactive	inactive		Stereotypies in regard to apomorphine, Intraperitoneal (I.P) [3, 8]: inactive
CCN1CCN=C1CN(C)C(=O)c1cc(Cl)c(N)cc1OC [Example 7, N-METHYL N-[(1-ETHYL 2-IMIDAZOLIN-2-YL)METHYL] 2-METHOXY 4-AMINO 5-CHLOROBENZAMIDE METHANE SULPHONATE]	23.4 to 24.4 mg/kg	inactive	inactive		Stereotypies in regard to apomorphine, Intraperitoneal (I.P) [3, 8]: inactive
CCN1CC(C)N=C1CNC(=O)c1cc(Cl)c(N)cc1OC (stereo not drawn) [Example 9, N-[(1-ETHYL 4-METHYL 2-IMIDAZOLIN-2-YL)METHYL] 2-METHOXY 4-AMINO 5-CHLOROBENZAMIDE]		inactive		5%	Stereotypies in regard to apomorphine, Subcutaneous (S.C.) ([3]; S.C., at 100 mg/kg): inactive
CCN(CC)CCNC(=O)c1cc(Cl)c(N)cc1OC [METOCLOPRAMIDE, Metoclopramide, reference compound]	37.9 mg/kg				TD50 [5]: 30 to 38 mg/kg; ED50 ([3]; Rattus norvegicus, ip, I.P., read-out: ID50, stereotypies in regard to apomorphine, Intraperitoneal (I.P)): 2 to 2.6 mg/kg; ED50 ([3]; Rattus norvegicus, sc, S.C., read-out: ID50, stereotypies in regard to apomorphine, Subcutaneous (S.C.)): 15 to 15.2 mg/kg; antagonism of apomorphine stereotypies (in words) ([3]; same conditions): marked stereotypy inhibitor capacity
COc1cc(N)c(Cl)cc1C(=O)NCC1=NCCN1CC1CC1 [Example 4, N-[(1-CYCLOPROPYLMETHYL 2-IMIDAZOLIN-2-YL)METHYL] 2-METHOXY 4-AMINO 5-CHLOROBENZAMIDE]		inactive			inhibition in vivo at 32 mg/kg [3, 6]: 26%; Stereotypies in regard to apomorphine, Subcutaneous (S.C.) ([3]; S.C., at 100 mg/kg): inactive
CCN1CCN=C1CNC(=O)c1cc(Br)c(N)cc1OC [Example 6, N-[(1-ETHYL 2-IMIDAZOLIN-2-YL)METHYL] 2-METHOXY 4-AMINO 5-BROMOBENZAMIDE]			inactive		Cataleptic Activity (Subcutaneous) ([2]; 100 mg/kg): inactive; inhibition in vivo at 32 mg/kg [3, 6]: 20%
COc1cc(N)c(Cl)cc1C(=O)NCC1=NCCN1Cc1ccccc1 [Example 3, N-[(1-benzyl 2-imidazolin-2-yl)methyl] 2-methoxy 4-amino 5-chlorobenzamide Hydrochloride]	47.8 to 48.5 mg/kg	inactive	inactive	19%	
C=CCN1CCN=C1CNC(=O)c1cc(Cl)c(N)cc1OC [Example 2, N-[(1-ALLYL 2-IMIDAZOLIN-2-YL)METHYL] 2-METHOXY 4-AMINO 5-CHLOROBENZAMIDE]	31.8 mg/kg	inactive			

— patent US4703055A, “Benzamides and therapeutic use thereof” (Societe d'Etudes Scientifiques et Industrielles de …, priority 1985, dated 1987)
